The text below walks through data of patent US9290451B2 (Hoffmann-La Roche Inc., priority 2011, dated 2016).

What is called EC50 is the concentration that produces a half-maximal response.

The target of one assay is human CB2 receptors (Homo sapiens (Human), UniProt P34972). Description: cAMP assay, CHO cells expressing human CB2 receptors. The note with it: CHO cells expressing human CB2, cAMP; read-out: human CB2 EC50. Format: cell-based. In outline: (§1)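 CHO cells, KRB buffer + 1 mM IBMX, 30 min 30 °C preincubation; compound 30 min 30 °C; lysis + TR-FRET cAMP detection, 2 h RT; cAMP from standard curve (10 μM–0.13 nM); EC50.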
For orientation: cAMP levels reflect the balance of adenylyl cyclase and phosphodiesterase activity.

The target in another assay is human CB1 receptors (Homo sapiens (Human), UniProt P21554). Put plainly: cAMP assay, CHO cells expressing human CB1 receptors. Format: cell-based. The note with it: CHO cells expressing human CB1, cAMP; read-out: human CB1 EC50. The gist of the method:
as §1

human CB2 receptors, sequence (P34972 whole entry): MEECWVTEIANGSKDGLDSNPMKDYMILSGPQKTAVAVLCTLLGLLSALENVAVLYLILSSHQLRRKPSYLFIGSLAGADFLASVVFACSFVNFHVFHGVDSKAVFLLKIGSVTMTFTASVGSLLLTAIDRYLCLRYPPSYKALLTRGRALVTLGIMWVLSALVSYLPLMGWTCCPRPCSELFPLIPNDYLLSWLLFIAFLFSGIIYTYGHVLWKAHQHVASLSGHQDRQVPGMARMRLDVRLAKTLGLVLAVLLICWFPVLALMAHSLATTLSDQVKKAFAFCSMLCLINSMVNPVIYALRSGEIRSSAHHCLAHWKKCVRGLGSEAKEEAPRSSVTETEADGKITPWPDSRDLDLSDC
human CB1 receptors, sequence (P21554 whole entry): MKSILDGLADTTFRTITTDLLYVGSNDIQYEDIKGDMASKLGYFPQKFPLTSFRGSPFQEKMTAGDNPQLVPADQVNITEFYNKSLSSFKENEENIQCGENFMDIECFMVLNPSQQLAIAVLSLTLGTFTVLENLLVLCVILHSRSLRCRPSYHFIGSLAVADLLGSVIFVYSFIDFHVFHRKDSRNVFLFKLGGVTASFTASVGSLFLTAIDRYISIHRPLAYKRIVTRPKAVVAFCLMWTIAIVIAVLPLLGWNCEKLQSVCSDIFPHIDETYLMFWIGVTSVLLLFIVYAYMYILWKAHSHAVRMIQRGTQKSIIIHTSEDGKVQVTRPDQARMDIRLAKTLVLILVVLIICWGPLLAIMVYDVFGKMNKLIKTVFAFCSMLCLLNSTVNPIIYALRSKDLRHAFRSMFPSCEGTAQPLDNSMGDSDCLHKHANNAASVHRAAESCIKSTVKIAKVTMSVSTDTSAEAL

In the case of `CN1CC(NC(=O)c2ccc(N3CC(F)(F)C3)c(OCC3CC3)n2)CC1=O` (stereo not shown) [Example 290, 6-Cyclopropylmethoxy-5-(3,3-difluoro-azetidin-1-yl)-pyridine-2-carboxylic acid (1-methyl-5-oxo-pyrrolidin-3-yl)-amide], the EC50 at human CB2 receptors is 0.846 µM; on human CB1 receptors, over 10 µM.
For `CCC(CC)(NC(=O)c1ccc(N2CCCC2)c(OCC2CC2)n1)C(=O)O` [Example 291, 2-[(6-Cyclopropylmethoxy-5-pyrrolidin-1-yl-pyridine-2-carbonyl)-amino]-2-ethyl-butyric acid], in that order: 0.413 µM and over 10 µM.
The like results for `O=C(NC1CCS(=O)(=O)C1)c1ccc(N2CC(F)(F)C2)c(OCC2CC2)n1` (stereo not shown) [Example 292, 6-Cyclopropylmethoxy-5-(3,3-difluoro-azetidin-1-yl)-pyridine-2-carboxylic acid (1,1-dioxo-tetrahydro-1λ^6-thiophen-3-yl)-amide] were, in that order, 0.874 µM and over 10 µM.
The like results for `O=C(NNC1CCS(=O)(=O)C1)c1ccc(N2CC(F)(F)C2)c(OCC2CC2)n1` (stereo not shown) [Example 293, 6-Cyclopropylmethoxy-5-(3,3-difluoro-azetidin-1-yl)-pyridine-2-carboxylic acid N′-(1,1-dioxo-tetrahydro-1λ^6-thiophen-3-yl)-hydrazide] were, in that order, 0.79 µM and over 10 µM.
As to `Cc1csc(C(C)(C)NC(=O)c2ccc(C3CC3)c(OCC3CC3)n2)n1` [Example 294, 5-Cyclopropyl-6-cyclopropylmethoxy-pyridine-2-carboxylic acid [1-methyl-1-(4-methyl-thiazol-2-yl)-ethyl]-amide], the EC50 at human CB2 receptors is 0.112 µM; on human CB1 receptors it was over 10 µM.
The like results for `CC1(COc2nc(C(=O)NC(C)(C)c3nccs3)ccc2N2CC(F)(F)C2)COC1` [Example 295, 5-(3,3-Difluoro-azetidin-1-yl)-6-(3-methyl-oxetan-3-ylmethoxy)-pyridine-2-carboxylic acid (1-methyl-1-thiazol-2-yl-ethyl)-amide] were, in that order, 0.259 µM and over 10 µM.
The like results for `CC(C)(NC(=O)c1ccc(C2CC2)c(OCC2CC2)n1)c1noc(N)n1` [Example 296, 5-Cyclopropyl-6-cyclopropylmethoxy-pyridine-2-carboxylic acid [1-(5-amino-[1,2,4]oxadiazol-3-yl)-1-methyl-ethyl]-amide] were, in that order, 0.0608 µM and over 10 µM.
For `CCC(CC)(NC(=O)c1cccc(OCC(F)(F)C(F)(F)F)n1)C(=O)NC` [Example 297, 6-(2,2,3,3,3-Pentafluoro-propoxy)-pyridine-2-carboxylic acid (1-ethyl-1-methylcarbamoyl-propyl)-amide], in that order: 0.962 µM and over 10 µM.
Regarding `CCC(CC)(NC(=O)c1ccc(C2CC2)c(OCC(F)(F)C(F)(F)F)n1)C(=O)NC` [Example 298, 5-Cyclopropyl-6-(2,2,3,3,3-pentafluoro-propoxy)-pyridine-2-carboxylic acid (1-ethyl-1-methylcarbamoyl-propyl)-amide], the EC50 at human CB2 receptors was 0.0142 µM; on human CB1 receptors, over 10 µM.
The like results for `CNC(=O)[C@H](CC(C)(C)C)NC(=O)c1ccc(C2CC2)c(OCC(F)(F)C(F)(F)F)n1` [Example 299, 5-Cyclopropyl-6-(2,2,3,3,3-pentafluoro-propoxy)-pyridine-2-carboxylic acid ((S)-3,3-dimethyl-1-methylcarbamoyl-butyl)-amide] were, in that order, 0.0276 µM and 0.603 µM.
For `Cc1nc([C@H](CC2CC2)NC(=O)c2ccc(C3CC3)c(OCC(F)(F)C(F)(F)F)n2)no1` [Example 300, 5-Cyclopropyl-6-(2,2,3,3,3-pentafluoro-propoxy)-pyridine-2-carboxylic acid [(S)-2-cyclopropyl-1-(5-methyl-[1,2,4]oxadiazol-3-yl)-ethyl]-amide], in that order: 0.0318 µM and over 10 µM.
For `NC(=O)[C@@H](NC(=O)c1ccc(C2CC2)c(OCC(F)(F)F)n1)c1ccccc1` [Example 301, 5-Cyclopropyl-6-(2,2,2-trifluoro-ethoxy)-pyridine-2-carboxylic acid ((S)-carbamoyl-phenyl-methyl)-amide], in that order: 0.13 µM and over 10 µM.
For `O=C(NC(c1ccccn1)C(F)(F)F)c1ccc(C2CC2)c(OCC(F)(F)F)n1` (stereo not shown) [Example 302, 5-Cyclopropyl-6-(2,2,2-trifluoro-ethoxy)-pyridine-2-carboxylic acid (2,2,2-trifluoro-1-pyridin-2-yl-ethyl)-amide], the EC50 on human CB2 receptors was 0.587 µM; on human CB1 receptors it was over 10 µM.
Consider `CC(C)C[C@@H](CO)NC(=O)c1ccc(C2CC2)c(OCC(F)(F)F)n1` [Example 303, 5-Cyclopropyl-6-(2,2,2-trifluoro-ethoxy)-pyridine-2-carboxylic acid ((S)-1-hydroxymethyl-3-methyl-butyl)-amide], for which the EC50 on human CB2 receptors is 0.038 µM; on human CB1 receptors, over 10 µM.
For `O=C(NC1(c2nccs2)COC1)c1ccc(C2CC2)c(OCC(F)(F)F)n1` [Example 304, 5-Cyclopropyl-6-(2,2,2-trifluoro-ethoxy)-pyridine-2-carboxylic acid (3-thiazol-2-yl-oxetan-3-yl)-amide], in that order: 0.135 µM and over 10 µM.
For `CC(C)(NC(=O)c1ccc(C2CC2)c(OCC(F)(F)F)n1)c1nccs1` [Example 305, 5-Cyclopropyl-6-(2,2,2-trifluoro-ethoxy)-pyridine-2-carboxylic acid (1-methyl-1-thiazol-2-yl-ethyl)-amide], in that order: 0.0503 µM and over 10 µM.
The like results for `CC(C)(C)C(NC(=O)c1ccc(C2CC2)c(OCC(F)(F)F)n1)c1nccs1` (stereo not shown) [Example 306, 5-Cyclopropyl-6-(2,2,2-trifluoro-ethoxy)-pyridine-2-carboxylic acid (2,2-dimethyl-1-thiazol-2-yl-propyl)-amide] were, in that order, 0.138 µM and over 10 µM.
`CCC(CC)(NC(=O)c1ccc(N2CC(F)(F)C2)c(OCC2CC2)n1)C(=O)N1CC(F)(F)C1` [Example 307, 6-Cyclopropylmethoxy-5-(3,3-difluoro-azetidin-1-yl)-pyridine-2-carboxylic acid [1-(3,3-difluoro-azetidine-1-carbonyl)-1-ethyl-propyl]-amide]: the EC50 is 0.0047 µM at human CB2 receptors and over 10 µM on human CB1 receptors.
The like results for `O=C(NNC1CCS(=O)(=O)C1)c1cccc(Cc2ccc(F)cc2)n1` (stereo not shown) [Example 308, 6-(4-Fluoro-benzyl)-pyridine-2-carboxylic acid N′-(1,1-dioxo-tetrahydro-1λ^6-thiophen-3-yl)-hydrazide] were, in that order, 0.58 µM and over 10 µM.
The like results for `CC(C)(NC(=O)c1ccc(C2CC2)c(OCC2CC2)n1)c1nc(N)no1` [Example 309, 5-Cyclopropyl-6-cyclopropylmethoxy-pyridine-2-carboxylic acid [1-(3-amino-[1,2,4]oxadiazol-5-yl)-1-methyl-ethyl]-amide] were, in that order, 0.176 µM and over 10 µM.
